A word on the GI50: it is the concentration at which growth is held to half of that of the control. Read a low GI50 as more potent growth inhibition.

The subject of the experiment is LNCaP cells. Nature of the experiment: LNCaP cell viability assay (MTS). The class given is cell-based. Particulars: Homo sapiens, LNCaP, 48 h, LNCaP cell line, 48 hours treatment. Here is the method: LNCaP cell line was used for the cell viability assay. LNCaP cells were plated in 96-well plates at a density of 5000 cells per well. After 24 hours of plating, the cells were treated with increasing doses of compound 1-100 ranging from 1 μM to 80 μM. Relative cell numbers were analyzed after 48 hours using 3-(4,5-dimethylthiazol-2-yl)-5-(3-carboxymethoxyphenyl)-2-(4-sulfophenyl)-2H-tetrazolium (MTS) assay (Promega) according to the manufacturer's instructions.
The cell viability data was analyzed with GraphPad Prism software. The values were log transformed and analyzed with non-linear regression (curve-fit) using log(inhibitor) vs. response—variable slope (four parameters) and constraining the bottom to equal zero. Unless otherwise indicated, the GI50 values provided in Table 35 correspond to the LNCaP cell viability assays.
`O=S(=O)(NC1(c2ccccc2)CCNCC1)c1ccc(OC(F)(F)F)nc1` [Compound 60, N-(4-phenylpiperidin-4-yl)-6-(trifluoromethoxy)pyridine-3-sulfonamide] returned a GI50 of 49.6 µM.
In the case of `CN1CCC(NS(=O)(=O)c2ccc(OC(F)(F)F)cc2)(c2ccccc2)CC1` [Compound 61, N-(1-methyl-4-phenylpiperidin-4-yl)-4-(trifluoromethoxy)benzenesulfonamide], growth was halved (GI50) at 44.1 µM.
The same measure for `CC(C)Oc1ccc(S(=O)(=O)NC2(c3ccc(Cl)cc3)CCNCC2)cc1` [Compound 62, N-(4-(4-chlorophenyl)piperidin-4-yl)-4-isopropoxybenzenesulfonamide]: 11.3 µM; for `N=S(=O)(NC1(c2ccc(Cl)cc2)CCNC1)c1ccc(OC(F)(F)F)cc1` (stereo not drawn) [Compound 63, N-(3-(4-chlorophenyl)pyrrolidin-3-yl)-4-(trifluoromethoxy)benzenesulfonimidamide]: 38.4 µM; for `O=S(=O)(NC1(c2ccc(Cl)cc2)CCNC1)c1ccc(OC(F)(F)F)nc1` (stereo not drawn) [Compound 64, N-(3-(4-chlorophenyl)pyrrolidin-3-yl)-6-(trifluoromethoxy)pyridine-3-sulfonamide]: 44.9 µM.
`O=S(=O)(NC1(C23CC(C2)C3)CCNCC1)c1ccc(OC(F)(F)F)cc1` [Compound 66, N-(4-(bicyclo[1.1.1]pentan-1-yl)piperidin-4-yl)-4-(trifluoromethoxy)benzenesulfonamide]: the GI50 is 68.6 µM.
`CC(C)Oc1ccc(S(=O)(=O)NC2(c3ccc(Cl)cc3)CCNCC2)cn1` [Compound 67, N-(4-(4-chlorophenyl)piperidin-4-yl)-6-isopropoxypyridine-3-sulfonamide] returned a GI50 of 18.2 µM. Against the preceding compound, the GI50 is about 3.8-fold lower.
For `CN=S(=O)(NC1(c2ccc(Cl)cc2)CCNC1)c1ccc(OC(F)(F)F)cc1` (stereo not drawn) [Compound 68, N-(3-(4-chlorophenyl)pyrrolidin-3-yl)-N′-methyl-4-(trifluoromethoxy)benzenesulfonimidamide] the value was 27.2 µM; for `CN1CCC(NS(=O)(=O)c2ccc(OC(F)(F)F)cc2)(c2ccc(Cl)cc2)C1` (stereo not drawn) [Compound 69, N-(3-(4-chlorophenyl)-1-methylpyrrolidin-3-yl)-4-(trifluoromethoxy)benzenesulfonamide], 19.5 µM; for `CC(C)(C)OC(=O)N1CCC(NS(=O)(=O)c2ccc(OC(F)(F)F)cc2)(c2ccc(Cl)cc2)C1` (stereo not drawn) [Compound 70], 21.7 µM.
For `O=S(=O)(NC1(c2ccc(Cl)cc2)CCN(C2COC2)C1)c1ccc(OC(F)(F)F)cc1` (stereo not drawn) [Compound 71, N-(3-(4-chlorophenyl)-1-(oxetan-3-yl)pyrrolidin-3-yl)-4-(trifluoromethoxy)benzenesulfonamide] the value was 59.1 µM; for `CS(=O)(=O)N1CCC(NS(=O)(=O)c2ccc(OC(F)(F)F)cc2)(c2ccc(Cl)cc2)C1` (stereo not drawn) [Compound 72, N-(3-(4-chlorophenyl)-1-(methylsulfonyl)pyrrolidin-3-yl)-4-(trifluoromethoxy)benzenesulfonamide], 50.4 µM; for `O=S(=O)(NC1(c2ncc(Cl)s2)CCNCC1)c1ccc(OC(F)(F)F)cc1` [Compound 73, N-(4-(5-chlorothiazol-2-yl)piperidin-4-yl)-4-(trifluoromethoxy)benzenesulfonamide], 56.4 µM.
For `O=S(=O)(NC1(c2ccc(F)cc2)CCNC1)c1ccc(OC(F)(F)F)cc1` (stereo not drawn) [Compound 74, N-(3-(4-fluorophenyl)pyrrolidin-3-yl)-4-(trifluoromethoxy)benzenesulfonamide] the value was 47.9 µM; for `CC(C)Oc1ccc(S(=O)(=O)NC2(c3ccc(F)cc3)CCNCC2)cc1` [Compound 75, N-(4-(4-fluorophenyl)piperidin-4-yl)-4-isopropoxybenzenesulfonamide], 30.7 µM; for `CC(C)Oc1ccc(S(=O)(=O)NC2(c3ccc(F)cc3)CCNCC2)cn1` [Compound 77, N-(4-(4-fluorophenyl)piperidin-4-yl)-6-isopropoxypyridine-3-sulfonamide], 41.7 µM.
In turn, `CC(C)Oc1ccc(S(=O)(=O)NC2(c3ccc(F)cc3)CCNC2)cc1` (stereo not drawn) [Compound 78, N-(3-(4-fluorophenyl)pyrrolidin-3-yl)-4-isopropoxybenzenesulfonamide] registered a GI50 of 70.5 µM.
The same measure for `CC(C)Oc1ccc(S(=O)(=O)NC2(c3ccc(Cl)cc3)CCNC2)cn1` (stereo not drawn) [Compound 80, N-(3-(4-chlorophenyl)pyrrolidin-3-yl)-6-isopropoxypyridine-3-sulfonamide]: 50 µM.
For `CC(C)CC(=O)N1CCC(NS(=O)(=O)c2ccc(OC(F)(F)F)cc2)(c2ccc(Cl)cc2)C1` (stereo not drawn) [Compound 81, N-(3-(4-chlorophenyl)-1-(3-methylbutanoyl)pyrrolidin-3-yl)-4-(trifluoromethoxy)benzenesulfonamide] the value was 45.8 µM; for `O=S(=O)(NC1(c2ccc(F)c(F)c2)CCNCC1)c1ccc(OC(F)(F)F)cc1` [Compound 82, N-(4-(3,4-difluorophenyl)piperidin-4-yl)-4-(trifluoromethoxy)benzenesulfonamide], 14.4 µM; for `O=S(=O)(NC1(c2ccc(F)cc2F)CCNCC1)c1ccc(OC(F)(F)F)cc1` [Compound 83, N-(4-(2,4-difluorophenyl)piperidin-4-yl)-4-(trifluoromethoxy)benzenesulfonamide], 32 µM.
The same measure for `CN(C1(c2ccc(Cl)cc2)CCNC1)S(=O)(=O)c1ccc(OC(F)(F)F)cc1` (stereo not drawn) [Compound 85, N-(3-(4-chlorophenyl)pyrrolidin-3-yl)-N-methyl-4-(trifluoromethoxy)benzenesulfonamide]: 33.5 µM; for `O=S(=O)(NC1(c2ccccc2)CC2CCC(C1)N2)c1ccc(OC(F)(F)F)cc1` (stereo not drawn) [Compound 86, N-(3-phenyl-8-azabicyclo[3.2.1]octan-3-yl)-4-(trifluoromethoxy)benzenesulfonamide]: 23.7 µM.
With `O=S(=O)(NC1(c2ccc(Cl)cn2)CCNCC1)c1ccc(OC(F)(F)F)cc1` [Compound 87, N-(4-(5-chloropyridin-2-yl)piperidin-4-yl)-4-(trifluoromethoxy)benzenesulfonamide], it took 46.6 µM to inhibit growth by half (GI50).
For `O=S(=O)(NC1(c2cc(F)ccc2F)CCNCC1)c1ccc(OC(F)(F)F)cc1` [Compound 88, N-(4-(2,5-difluorophenyl)piperidin-4-yl)-4-(trifluoromethoxy)benzenesulfonamide] the value was 36.5 µM; for `O=S(=O)(NC1(c2ccc(Cl)c(Cl)c2)CC1)c1ccc(OC(F)(F)F)cc1` [Compound 89, N-(1-(3,4-dichlorophenyl)cyclopropyl)-4-(trifluoromethoxy)benzenesulfonamide], 46.6 µM; for `O=S(=O)(NC1(c2ccccc2)CCCNC1)c1ccc(OC(F)(F)F)cc1` (stereo not drawn) [Compound 90, N-(3-phenylpiperidin-3-yl)-4-(trifluoromethoxy)benzenesulfonamide], 48.9 µM.
In the case of `O=S(=O)(NC1(c2ccc(Cl)s2)CCNCC1)c1ccc(OC(F)(F)F)cc1` [Compound 91, N-(4-(5-chlorothiophen-2-yl)piperidin-4-yl)-4-(trifluoromethoxy)benzenesulfonamide], the GI50 was 9.6 µM.
The same measure for `Cc1cc(C2(NS(=O)(=O)c3ccc(OC(F)(F)F)c(N)c3)CCNC2)ccc1F` (stereo not drawn) [Compound 93, 3-amino-N-(3-(4-fluoro-3-methylphenyl)pyrrolidin-3-yl)-4-(trifluoromethoxy)benzenesulfonamide]: 65.5 µM; for `O=S(=O)(NC1(c2ccc(Cl)cc2F)CCNCC1)c1ccc(OC(F)(F)F)cc1` [Compound 94, N-(4-(4-chloro-2-fluorophenyl)piperidin-4-yl)-4-(trifluoromethoxy)benzenesulfonamide]: 15.8 µM; for `O=S(=O)(NC1(c2ncc(Cl)cc2F)CCNCC1)c1ccc(OC(F)(F)F)cc1` [Compound 95, N-(4-(5-chloro-3-fluoropyridin-2-yl)piperidin-4-yl)-4-(trifluoromethoxy)benzenesulfonamide]: 45.8 µM.
In turn, `NS(=O)(=NC1(c2ccc(Cl)cc2)CCNCC1)c1ccc(OC(F)(F)F)cc1` (stereo not drawn) [Compound 96, N′-(4-(4-chlorophenyl)piperidin-4-yl)-4-(trifluoromethoxy)benzenesulfonimidamide] came in with a GI50 of 13.7 µM.
For `O=S(=O)(NC1(c2ccc(Cl)cc2)CCNCC1)c1ccc(C(F)(F)F)cc1` [Compound 97, N-(4-(4-chlorophenyl)piperidin-4-yl)-4-(trifluoromethyl)benzenesulfonamide] the value was 11.6 µM; for `O=S(=O)(NC1(c2ccc(Cl)cc2)CCNCC1)C12CC(C(F)(F)F)(C1)C2` [Compound 98, N-(4-(4-chlorophenyl)piperidin-4-yl)-3-(trifluoromethyl)bicyclo[1.1.1]pentane-1-sulfonamide], 46.6 µM.
In turn, `Nc1cc(S(=O)(=O)NC2(c3ccc(Cl)cc3)CCNCC2)ccc1OC(F)(F)F` [Compound 99, 3-amino-N-(4-(4-chlorophenyl)piperidin-4-yl)-4-(trifluoromethoxy)benzenesulfonamide] came in with a GI50 of 46.1 µM.
Compound `O=S(=O)(NC1(c2ccc(C(F)F)cc2)CCNCC1)c1ccc(OC(F)(F)F)cc1` [Compound 100, N-(4-(4-(difluoromethyl)phenyl)piperidin-4-yl)-4-(trifluoromethoxy)benzenesulfonamide] displayed a GI50 of 22.3 µM.

These data come from patent publication US20240174611A1 (Rappta Therapeutics Oy, priority 2021, published 2024).
